From patent US20250263404A1, “AMINOPYRIDINES AS ACTIVATORS OF PI3 KINASE” (UCL Business Ltd, priority 2021, published 2025)

Tests used:
PI3Kα-WT MEFs = experiment: Cell cycle progression by EdU incorporation in MEFs; type: cell-based, mouse
Protocol: Click-IT EdU strategy was used according to manufacturer instructions (Sigma-Aldrich #BCK-FC488-50). Briefly, MEFs were seeded at 50,000 cells per well in 6-well plates in DMEM supplemented with 10% FBS and 1% P/S, and allowed to attach overnight. The next day, cells were serum-starved for 5 h prior to compound addition in fresh serum-free DMEM. At different time points, cells were pulsed for 3 h with 10 μM EdU, followed by collection by trypsinization and fixation with 3.7% FA in PBS for 15 min in the dark, washed in 3% BSA and permeabilized in 1× saponin-based permeabilization buffer for 20 min in the dark. EdU was then detected using the FAM-azide assay cocktail for 30 min in the dark. Cells were washed twice in 1× saponin-based permeabilization buffer followed by analysed with flow cytometer (Novocyte Advanteon flow cytometer, Agilent).

rat sciatic nerve = experiment: Rat sciatic nerve crush injury model; type: in vivo; details: 21 days
Protocol: Stimulated by these observations, we next tested 1938 in the sciatic nerve crush model in the rat, an in vivo model of peripheral nerve injury and regeneration. […] Immediately after the nerve crush (FIG. 5e, i-ii), 1938 was delivered via a single intraneural injection into the proximal crush site (FIG. 5e, iii) and via a minipump implanted adjacent to the nerve (FIG. 5e, iv), loaded with 1938 solution, for continuous delivery for the duration of the experiment. Analyses were conducted 3 weeks after injury.
Adult female Sprague Dawley rats (230-280 g, n=10, Charles River, UK) were anaesthetised by isoflurane inhalation in an induction chamber (5% isoflurane in O2, 0.8 l/min). Anaesthesia was maintained with 1.5-2.5% isoflurane inhalation, and the left sciatic nerve exposed at mid-thigh level.
The nerve was crushed by application of constant pressure using fully closed sterile type 4 tweezers (TAAB) for 15 sec. This was repeated two more times at the same point, with 45° rotation between each crush. The injury site was marked with a 10/0 epineurial non-absorbant suture (Ethicon). Following injury, frozen aliquots of 1938 solution and vehicle were defrosted. A single 2 μl injection of 1938 solution (5 μM in sterile H2O) or vehicle (sterile dH2O) was administered proximal to the crush site with a 10 μl Hamilton syringe. An osmotic minipump (Alzet 1004, Charles River, UK) was also implanted between the muscle layers, adjacent to the nerve oriented with the outlet nearest to the crush site, loaded with 1938 solution (100 μM in sterile H2O) or vehicle (sterile H2O). Animals were randomly assigned to groups (n=5 per group) and one experimenter was kept blind to condition for conducting functional and histological analyses. […]
At the end-point of the experiment (21 days), rats were anaesthetised and the sciatic nerve exposed as described above. […] The MI was manufactured using a previously documented protocol (Lancashire, H. T. et al. J Neural Eng 13, 034001 (2016). Electrode impedance of the MNI was 27.1±19.8 kΩ at 1k Hz. Compound muscle action potential (CMAP) was obtained by sciatic nerve stimulation with square wave pulses of 100 μsec with intensity from 1-10 mA. Stimulus was increased in 0.2 mA steps until muscle response amplitude no longer increased. CMAP amplitude was measured from peak to peak and recorded in triplicate for both the ipsilateral and contralateral side. The CMAP with the largest amplitude was selected for analysis.
A modified multipoint stimulation technique was used to calculate Motor Unit Number Estimation (MUNE) (Shefner, J. M. et al. Muscle & nerve 34, 603-607 (2006); Jacobsen, A. B. et al. J Vis Exp (2018); Arnold, W. D. et al. J Vis Exp (2015)). […] The CMAP was divided by the mean magnitude of SMUPs to quantify MUNE. […]

SMILES: CCN1CCN(c2ccc(Nc3cc(Nc4cccc5c4N(C(C)=O)CC5)ccn3)cc2)CC1 [Example 1938]
- cell cycle progression (EdU incorporation) (PI3Kα-WT MEFs): induced cell cycle progression
- neurofilament- and ChAT-positive axons, treatment versus control (rat sciatic nerve; 3 mm and 6 mm distal to the crush site): equivalent numbers
- number of ChAT-positive motor axons (rat sciatic nerve; distal common peroneal nerve): an increase
- compound muscle action potential (CMAP) recovery (rat sciatic nerve; tibialis anterior muscle): greater
- motor unit number estimation (MUNE) (rat sciatic nerve; tibialis anterior muscle): increased
